Reference: patent US20260265246A1 (ICAHN SCHOOL OF MEDICINE AT MOUNT SINAI, priority 2021, published 2026)
Like-named read-outs stand apart in the source and are kept apart here.

Tests used:
5HT2A receptor [1] = target: T1, 5HT2A receptor (Homo sapiens, UniProt P28223); assay: biochemical; format: binding; design: expressed in transfected cells; crude membranes
5HT2A receptor [2] = target: T1, 5HT2A receptor; assay: cell-based; design: expressed in transfected cells; host or cells: HEK293T cells, transient co-transfection; conditions: for Emax: HEK-293T
5HT2A receptor [3] = target: T1, 5HT2A receptor; assay: cell-based; design: expressed in transfected cells; host or cells: HEK293T cells, transient co-transfection; conditions: for Emax: HEK-293T; remark: listed apart in the source
[4] = 5HT2A Ki (nM), secondary binding assay, Cheng-Prusoff
[5] = 5HT2A β-Arr EC50 (nM), BRET1 beta-arrestin2 recruitment, HEK293T
[6] = BRET1 beta-arrestin2 recruitment, HEK293T, normalized to 5-HT, read-out: 5HT2A β-Arr Emax (%)
[7] = 5HTA Gq EC50 (nM), BRET2 Gαq dissociation, HEK293T
[8] = BRET2 Gαq dissociation, HEK293T, normalized to 5-HT, read-out: 5HTA Gq Emax (%)
[9] = 5HT2A Ki (nM), secondary radioligand binding, Ki from IC50 by Cheng-Prusoff
[10] = 5HT2A β-Arr EC50 (nM), BRET1 beta-arrestin2 recruitment, HEK293T cells
[11] = BRET1 beta-arrestin2 recruitment, HEK293T cells, normalized to 5-HT, read-out: 5HT2A β-Arr Emax (%)
[12] = 5HT2A Gq EC50 (nM), BRET2 Gαq dissociation, HEK293T cells
[13] = BRET2 Gαq dissociation, HEK293T cells, normalized to 5-HT, read-out: 5HT2A Gq Emax (%)
[14] = read-out: 5HT2A β-Arr Emax (%), BRET1 beta-arrestin2 recruitment, HEK293T, normalized to 5-HT
[15] = read-out: 5HTA Gq Emax (%), BRET2 Gαq dissociation, HEK293T, normalized to 5-HT
[16] = BRET2 Gαq dissociation, HEK293T cells, read-out: 5HT2A Gq EC50
[17] = secondary radioligand binding, Ki from IC50 by Cheng-Prusoff, read-out: 5HT2A Ki
[18] = BRET1 beta-arrestin2 recruitment, HEK293T cells, read-out: 5HT2A β-Arr EC50
[19] = read-out: 5HT2A β-Arr Emax (%), BRET1 beta-arrestin2 recruitment, HEK293T cells, normalized to 5-HT
[20] = read-out: 5HT2A Gq Emax (%), BRET2 Gαq dissociation, HEK293T cells, normalized to 5-HT
[21] = BRET1 beta-arrestin2 recruitment, HEK293T, read-out: 5HT2A β-Arr EC50
[22] = BRET2 Gαq dissociation, HEK293T, read-out: 5HTA Gq EC50

T1 sequence (P28223 whole entry): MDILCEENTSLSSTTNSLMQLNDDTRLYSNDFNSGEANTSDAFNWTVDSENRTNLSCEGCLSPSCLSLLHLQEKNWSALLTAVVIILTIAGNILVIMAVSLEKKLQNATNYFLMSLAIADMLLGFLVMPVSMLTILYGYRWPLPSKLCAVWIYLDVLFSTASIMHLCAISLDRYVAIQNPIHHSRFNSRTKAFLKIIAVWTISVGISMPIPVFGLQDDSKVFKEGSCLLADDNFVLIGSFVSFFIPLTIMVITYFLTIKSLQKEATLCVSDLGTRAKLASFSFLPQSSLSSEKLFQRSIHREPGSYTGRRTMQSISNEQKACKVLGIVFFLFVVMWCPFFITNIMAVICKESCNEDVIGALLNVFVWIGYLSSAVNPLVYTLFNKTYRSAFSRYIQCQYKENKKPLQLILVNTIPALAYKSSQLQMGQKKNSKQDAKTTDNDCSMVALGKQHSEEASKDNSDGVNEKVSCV

Structure (SMILES) | Ki (5HT2A receptor [1]; [4]) [nM] | EC50 (5HT2A receptor [2]; [5]) [nM] | Emax (5HT2A receptor [2]; [6]) [%] | EC50 (5HT2A receptor [3]; [7]) [nM] | Emax (5HT2A receptor [3]; [8]) [%] | Ki (5HT2A receptor [1]; [9]) [nM] | EC50 (5HT2A receptor [2]; [10]) [nM] | Emax (5HT2A receptor [2]; [11]) [%] | EC50 (5HT2A receptor [3]; [12]) [nM] | Emax (5HT2A receptor [3]; [13]) [%] | other results
Fc1cccc2c(C34CCNCC3C4)n[nH]c12 (stereo not shown) [Example 229, 3-(3-azabicyclo[4.1.0]heptan-6-yl)-7-fluoro-1H-indazole] | 1900 | 2070 | 90.2 | 236 | 83.7 |  |  |  |  |  | 
Clc1ccc2c(C3=CCCNC3)c[nH]c2c1 [Example 31, 6-chloro-3-(1,2,5,6-tetrahydropyridin-3-yl)-1H-indole] |  |  |  |  |  | 160 | 1500 | 112 | 106 | 93 | 
CCc1cccc2c(C3=CCCN(C4CC4)C3)n[nH]c12 [Example 238, 3-(1-cyclopropyl-1,2,5,6-tetrahydropyridin-3-yl)-7-ethyl-1H-indazole] | 634 | 1020 | 50 | 101 | 42.2 |  |  |  |  |  | 
CC#CCN1CCC=C(c2n[nH]c3c(Cl)cccc23)C1 [Example 149, 3-(1-(but-2-yn-1-yl)-1,2,5,6-tetrahydropyridin-3-yl)-7-chloro-1H-indazole] | 364 | 113 |  | 10.1 |  |  |  |  |  |  | Emax (5HT2A receptor [2]; [14]): 24.2%; Emax (5HT2A receptor [3]; [15]): 49.8%
Clc1[nH]c2ccccc2c1C1=CCCNC1 [Example 64, 2-chloro-3-(1,2,5,6-tetrahydropyridin-3-yl)-1H-indole] |  |  |  |  |  | 186 | 219 | 60.2 | 61.9 | 91.8 | 
Cc1cccc2c(C3=CCCNC3)n[nH]c12 [Example 88, 7-methyl-3-(1,2,5,6-tetrahydropyridin-3-yl)-1H-indazole] |  |  |  |  |  | 211 | 227 | 64.8 |  | 72.6 | EC50 (5HT2A receptor [3]; [16]): 52.8 nM
Clc1ccc2[nH]cc(C3=CCCNC3)c2c1 [Example 22, 5-chloro-3-(1,2,5,6-tetrahydropyridin-3-yl)-1H-indole] |  |  |  |  |  |  |  | 77.3 |  | 102 | Ki (5HT2A receptor [1]; [17]): 44.3 nM; EC50 (5HT2A receptor [2]; [18]): 78.4 nM; EC50 (5HT2A receptor [3]; [16]): 7.2 nM
Clc1cccc2c(C3CCCNC3)n[nH]c12 (stereo not shown) [Example 114, 7-chloro-3-(piperidin-3-yl)-1H-indazole] |  |  |  |  |  | 1240 | 468 |  | 290 |  | Emax (5HT2A receptor [2]; [19]): 29.3%; Emax (5HT2A receptor [3]; [20]): 74.5%
CN1CCC=C(c2c[nH]c3ncc(-c4ccccc4)cc23)C1 [Example 8, 3-(1-methyl-1,2,5,6-tetrahydropyridin-3-yl)-5-phenyl-1H-pyrrolo[2,3-b]pyridine] |  |  |  |  |  | 156 | 811 | 58.3 | 67 | 95.5 | 
COc1cnc2[nH]cc(C3=CCCNC3)c2c1 [Example 2, 5-methoxy-3-(1,2,5,6-tetrahydropyridin-3-yl)-1H-pyrrolo[2,3-b]pyridine] |  |  |  |  |  | 294 | 1040 | 61.6 | 135 | 73.7 | 
Cc1cccc2c(C3=CCCNC3)c[nH]c12 [Example 41, 7-methyl-3-(1,2,5,6-tetrahydropyridin-3-yl)-1H-indole] |  |  |  |  |  | 1380 | 1410 | 83.2 | 234 | 92.6 | 
Cc1cccc2c(C34CNCC3C4)c[nH]c12 (stereo not shown) [Example 272, 3-(3-azabicyclo[3.1.0]hexan-1-yl)-7-methyl-1H-indole] | 890 | 1500 | 38 | 100 | 89.5 |  |  |  |  |  | 
Clc1cccc2c(C3=CCNC3)n[nH]c12 [Example 206, 7-chloro-3-(2,5-dihydro-1H-pyrrol-3-yl)-1H-indazole] | 272 |  | 108 |  | 117 |  |  |  |  |  | EC50 (5HT2A receptor [2]; [21]): 44.8 nM; EC50 (5HT2A receptor [3]; [22]): 14.4 nM
CN1CCCC(c2c[nH]c3c(Cl)cccc23)C1 (single isomer, unassigned) [Example 113, 7-chloro-3-(1-methylpiperidin-3-yl)-1H-indole] |  |  |  |  |  | 1430 | 1520 |  | 279 |  | Emax (5HT2A receptor [2]; [19]): 62.6%; Emax (5HT2A receptor [3]; [20]): 84.9%
Clc1cccc2c(-c3cncnc3)n[nH]c12 [Example 216, 7-chloro-3-(pyrimidin-5-yl)-1H-indazole] | 4390 | 729 | 53.8 | 27.5 | 85.1 |  |  |  |  |  | 
CN1CCC=C(c2n[nH]c3cc(F)ccc23)C1 [Example 95, 6-fluoro-3-(1-methyl-1,2,5,6-tetrahydropyridin-3-yl)-1H-indazole] |  |  |  |  |  |  |  | 27 |  | 47.1 | Ki (5HT2A receptor [1]; [17]): 47.3 nM; EC50 (5HT2A receptor [2]; [18]): 467 nM; EC50 (5HT2A receptor [3]; [16]): 21.1 nM
CCCN1CCC=C(c2c[nH]c3c(F)cccc23)C1 [Example 156, 7-fluoro-3-(1-propyl-1,2,5,6-tetrahydropyridin-3-yl)-1H-indole] | 164 |  | 58.4 |  | 103 |  |  |  |  |  | EC50 (5HT2A receptor [2]; [21]): 61.2 nM; EC50 (5HT2A receptor [3]; [22]): 20.2 nM
CN1CCC=C(c2n[nH]c3c(F)cccc23)C1 [Example 107, 7-fluoro-3-(1-methyl-1,2,5,6-tetrahydropyridin-3-yl)-1H-indazole] |  |  |  |  |  | 883 | 213 |  | 34.5 |  | Emax (5HT2A receptor [2]; [19]): 36.3%; Emax (5HT2A receptor [3]; [20]): 68.1%
CN1CCC=C(c2c[nH]c3nc(F)ccc23)C1 [Example 134, 6-fluoro-3-(1-methyl-1,2,5,6-tetrahydropyridin-3-yl)-1H-pyrrolo[2,3-b]pyridine] | 284 | 1050 | 51.1 | 140 | 87.4 |  |  |  |  |  | 
CN1CCC=C(c2c[nH]c3c(C(F)(F)F)cccc23)C1 [Example 59, 3-(1-methyl-1,2,5,6-tetrahydropyridin-3-yl)-7-(trifluoromethyl)-1H-indole] |  |  |  |  |  |  |  | 56.9 |  | 81.7 | Ki (5HT2A receptor [1]; [17]): 25.8 nM; EC50 (5HT2A receptor [2]; [18]): 75.5 nM; EC50 (5HT2A receptor [3]; [16]): 17.8 nM
Fc1ccc2c(C3=CCCNC3)c[nH]c2n1 [Example 133, 6-fluoro-3-(1,2,5,6-tetrahydropyridin-3-yl)-1H-pyrrolo[2,3-b]pyridine] | 292 | 897 |  | 166 |  |  |  |  |  |  | Emax (5HT2A receptor [2]; [14]): 38.1%; Emax (5HT2A receptor [3]; [15]): 77.2%
CN1CCC=C(c2n[nH]c3ccc(Cl)cc23)C1 [Example 101, 5-chloro-3-(1-methyl-1,2,5,6-tetrahydropyridin-3-yl)-1H-indazole] |  |  |  |  |  | 141 | 292 | 80.7 |  | 74.2 | EC50 (5HT2A receptor [3]; [16]): 16.2 nM
Clc1cccc2c(C34CNCCC3C4)c[nH]c12 (stereo not shown) [Example 269, 3-(3-azabicyclo[4.1.0]heptan-1-yl)-7-chloro-1H-indole] | 743 | 1380 |  | 257 |  |  |  |  |  |  | Emax (5HT2A receptor [2]; [14]): 30%; Emax (5HT2A receptor [3]; [15]): 88.8%
